Results on 13 compounds are retold here after article PMC9033141, “Beta and Gamma Amino Acid-Substituted Benzenesulfonamides as Inhibitors of Human Carbonic Anhydrases” (Pharmaceuticals, 2022).

For data set [1], the target named is CAXIII (Homo sapiens, UniProt Q8N1Q1). The experiment in a line: biochemical. The settings on record: Observed Dissociation Constant (Kd_obs), FTSA, pH 7.0, 37 °C.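 Also: recombinant human CAXIII melting temperature tracked by ANS fluorescence in thermal shift assay, Tm fitted against ligand concentration, intrinsic value corrects Kd for deprotonated sulfonamide and Zn-bound water fractions.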
CAXIII, sequence (Q8N1Q1 whole entry): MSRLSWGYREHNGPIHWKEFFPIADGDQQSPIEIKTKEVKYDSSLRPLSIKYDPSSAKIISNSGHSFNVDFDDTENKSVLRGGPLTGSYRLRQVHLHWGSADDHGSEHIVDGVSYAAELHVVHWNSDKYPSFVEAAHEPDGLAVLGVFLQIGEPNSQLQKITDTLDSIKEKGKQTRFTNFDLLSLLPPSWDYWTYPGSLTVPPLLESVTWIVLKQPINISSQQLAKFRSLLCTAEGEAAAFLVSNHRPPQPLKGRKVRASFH
Method: (§1) Human CA isozymes were expressed in E. coli (CAI, II, III, IV, VA, VB, VII, XII, XIII, XIV) or mammalian cells (CAVI and CAIX), chromatographically purified following the published protocols [47], and stored at −80 °C. The protein concentration was determined by UV absorption at 280 nm using Beer–Lambert law.
(§2) The QIAGEN Rotor-Gene Q was used to carry out the experiments, with a blue channel used for excitation (365 nm) and detection (460 nm). FTSA in this case relies on an extrinsic probe, 8-anilino-1-naphthalenesulfonate (ANS), to detect the fluorescence increase during protein denaturation, from which protein melting temperature (Tm) can be determined. […] The observed affinity of ligands for CAs was determined by plotting the Tm as a function of ligand concentration and then fitting a curve as described previously [48]. […] Samples were heated from 25 °C to 99 °C at the speed of 1 °C/min.
(§3) The intrinsic thermodynamic parameters were calculated as described in [40]. The intrinsic reaction of inhibitor binding to CA is shown in Equation (1).
(§4) When calculating Kd_int values, these protein and ligand fractions from Equation (1) have to be accounted for (Equations (2) and (3)). The intrinsic dissociation constant is calculated by multiplying Kd_obs value by the corresponding fractions of protein and ligand (Equation (4)). (2) fRSO2NH^−=10^pH−pKa_RSO2NH2/1+10^pH−pKa_RSO2NH2 (3) fCAZnH2O=1−10^pH−pKa_CAZnH2O/1+10^pH−pKa_CAZnH2O (4) Kd_int=Kd_obs×fRSO2NH^−×fCAZnH2O (5) ΔGint0=RTlnKd_int
(§5) The intrinsic standard Gibbs energy changes upon binding were calculated using Equation (5). Here, R—universal ideal gas constant (8.3144 J/mol·K), T—absolute temperature (310.15 K).
Data set [2] deals with T1, CAIX (Homo sapiens, UniProt Q16790).
T1 construct: made in house
In words: biochemical. Type of data set: binding. To be noted: FTSA, pH 7.0, 37 °C; read-out: Observed Dissociation Constant (Kd_obs), CAIX.
Method: as §1, §2, §3, §4, §5

Data set [3] deals with T2, CAXII (Homo sapiens, UniProt O43570).
T2 construct: made in house; host or cells: E. coli
T2 sequence (O43570 25-354): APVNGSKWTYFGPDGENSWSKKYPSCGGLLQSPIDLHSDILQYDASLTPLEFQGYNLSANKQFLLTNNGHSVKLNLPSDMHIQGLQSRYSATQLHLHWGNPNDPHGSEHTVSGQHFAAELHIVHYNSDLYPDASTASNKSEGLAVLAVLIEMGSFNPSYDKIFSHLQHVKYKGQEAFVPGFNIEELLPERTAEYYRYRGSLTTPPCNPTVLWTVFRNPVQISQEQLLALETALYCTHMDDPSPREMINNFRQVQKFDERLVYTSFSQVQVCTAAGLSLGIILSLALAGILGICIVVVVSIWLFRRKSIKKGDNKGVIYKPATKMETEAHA
The experiment in a line: biochemical. To be noted: FTSA, pH 7.0, 37 °C; read-out: Observed Dissociation Constant (Kd_obs), CAXII. Format: binding.

For data set [4], the target named is T3, CAI (Homo sapiens, UniProt P00915).
T3 construct: made in house; host or cells: E. coli
T3 sequence (P00915 whole entry): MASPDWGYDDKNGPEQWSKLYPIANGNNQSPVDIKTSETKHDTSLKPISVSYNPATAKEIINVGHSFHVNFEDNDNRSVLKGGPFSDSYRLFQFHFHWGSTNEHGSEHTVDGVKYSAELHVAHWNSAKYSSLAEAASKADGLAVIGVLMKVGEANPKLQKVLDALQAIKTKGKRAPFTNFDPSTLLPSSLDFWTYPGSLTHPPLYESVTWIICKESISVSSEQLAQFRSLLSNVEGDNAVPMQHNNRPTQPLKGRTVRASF
In words: biochemical. Type of data set: binding. To be noted: FTSA, pH 7.0, 37 °C; read-out: Observed Dissociation Constant (Kd_obs), CAI.

In data set [5] the target is T4, CAII (Homo sapiens, UniProt P00918).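 Also: recombinant human CAII, thermal shift with ANS dye fluorescence, Kd_obs from fitting melting temperature versus ligand concentration, intrinsic values corrected for deprotonated sulfonamide and Zn-bound water fractions.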
T4 construct: made in house; host or cells: E. coli
In words: biochemical. Type of data set: binding. To be noted: FTSA, pH 7.0, 37 °C; read-out: Observed Dissociation Constant (Kd_obs), CAII.
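For Observed Dissociation Constant (Kd obs), CAXII in this document: recombinant CAXII made in E. coli, ANS-fluorescence thermal shift with affinity fitted from Tm versus ligand concentration, intrinsic energy from Kd_obs corrected for deprotonated sulfonamide and Zn-water fractions.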

The term melting point denotes the temperature, or range, at which the solid turns liquid. For the compound `CC(=NNC(=O)CC(CNc1ccc(S(N)(=O)=O)cc1Cl)C(=O)NN=C(C)c1ccccc1)c1ccccc1` (stereo not drawn) [Compound 5b, 3-Chloro-4-((4-oxo-2-(2-(1-phenylethylidene)hydrazine-1-carbonyl)-4-(2-(1-phenylethylidene)hydrazineyl)butyl)amino)benzenesulfonamide], the melting point fell in the range of 158 to 159 °C. Further, in data set [1], the Kd was found to be 0.4 µM. Moreover, the Kd in data set [2] amounted to 0.18 µM. In data set [3], the Kd is 6.7 µM. Further, in data set [4], the Kd was found to be 4 µM. In data set [5], the Kd was 0.25 µM.

The compound `NS(=O)(=O)c1ccc(NCC(CC(=O)NN=Cc2ccccc2O)C(=O)NN=Cc2ccccc2O)c(Cl)c1` (stereo not drawn) [Compound 7b, 3-Chloro-4-((2-(2-(2-hydroxybenzylidene)hydrazine-1-carbonyl)-4-(2-(2-hydroxybenzylidene)hydrazineyl)-4-oxobutyl)amino)benzenesulfonamide] had a melting point of 204 to 205 °C. Also, the Kd in data set [1] came to 0.17 µM. In addition, the Kd in data set [2] turned out to be 0.067 µM. Further, the Kd in data set [3] came out at 5 µM. Besides, the Kd in data set [4] amounted to 1 µM. Moreover, the Kd in data set [5] was 0.17 µM.

Take `NS(=O)(=O)c1ccc(NCC(CC(=O)NN=Cc2ccccc2O)C(=O)NN=Cc2ccccc2O)cc1` (stereo not drawn) [Compound 7a, 4-((2-(2-(2-Hydroxybenzylidene)hydrazine-1-carbonyl)-4-(2-(2-hydroxybenzylidene)hydrazineyl)-4-oxobutyl)amino)benzenesulfonamide]: the melting point fell in the range of 177 to 178 °C. The Kd in data set [1] came to 10 µM. In data set [2], the Kd stood at 0.5 µM. For the same compound, the Kd in data set [3] worked out at 20 µM. In addition, the Kd in data set [4] was determined as 6.7 µM. The Kd in data set [5] was determined as 2 µM.

For the compound `NS(=O)(=O)c1ccc(NCC(CC(=O)NN=Cc2ccc(Cl)cc2)C(=O)NN=Cc2ccc(Cl)cc2)cc1` (stereo not drawn) [Compound 12a, 4-((2-(2-(4-Chlorobenzylidene)hydrazine-1-carbonyl)-4-(2-(4-chlorobenzylidene)hydrazineyl)-4-oxobutyl)amino)benzenesulfonamide], the melting point fell in the range of 179 to 180 °C. The compound also gave a Kd in data set [1] of 17 µM. Moreover, the Kd in data set [2] is 1 µM. Further, in data set [3], the Kd was 66 µM. For the same compound, in data set [4], the Kd was found to be 36 µM. The Kd in data set [5] worked out at 5 µM.

Consider `NS(=O)(=O)c1ccc(NCC(CC(=O)NN=Cc2cccc([N+](=O)[O-])c2)C(=O)NN=Cc2cccc([N+](=O)[O-])c2)c(Cl)c1` (stereo not drawn) [Compound 16b, 3-Chloro-4-((2-(2-(3-nitrobenzylidene)hydrazine-1-carbonyl)-4-(2-(3-nitrobenzylidene)hydrazineyl)-4-oxobutyl)amino)benzenesulfonamide], for which the melting point lay in the range of 199 to 200 °C. Moreover, in data set [1], the Kd amounted to 1 µM. Also, in data set [2], the Kd was found to be 0.13 µM. Also, the Kd in data set [3] stood at 130 µM. Further, in data set [4], the Kd turned out to be 3.3 µM. Moreover, the Kd in data set [5] is 0.5 µM.

Compound `NS(=O)(=O)c1ccc(NCC(CC(=O)NN=Cc2ccc(Cl)cc2)C(=O)NN=Cc2ccc(Cl)cc2)c(Cl)c1` (stereo not drawn) [Compound 12b, 3-Chloro-4-((2-(2-(4-chlorobenzylidene)hydrazine-1-carbonyl)-4-(2-(4-chlorobenzylidene)hydrazineyl)-4-oxobutyl)amino)benzenesulfonamide] had a melting point of 211 to 212 °C. This compound also displayed a Kd in data set [1] of 1.5 µM. The Kd in data set [2] is 0.67 µM. Moreover, the Kd in data set [3] worked out at 57 µM. The Kd in data set [4] came to 6.7 µM. Besides, the Kd in data set [5] is 1.1 µM.

`NS(=O)(=O)c1ccc(NCC(CC(=O)NN=Cc2ccc(O)cc2)C(=O)NN=Cc2ccc(O)cc2)cc1` (stereo not drawn) [Compound 9a, 4-((2-(2-(4-Hydroxybenzylidene)hydrazine-1-carbonyl)-4-(2-(4-hydroxybenzylidene)hydrazineyl)-4-oxobutyl)amino)benzenesulfonamide] registered a melting point of 186 to 187 °C. In data set [1], this compound showed a Kd of 4.3 µM. In addition, the Kd in data set [2] stood at 0.5 µM. Also, the Kd in data set [3] was found to be 25 µM. Further, the Kd in data set [4] worked out at 5.9 µM. For the same compound, in data set [5], the Kd came out at 1.3 µM.

Compound `NS(=O)(=O)c1ccc(NCC(CC(=O)NN=Cc2ccccc2Cl)C(=O)NN=Cc2ccccc2Cl)c(Cl)c1` (stereo not drawn) [Compound 10b, 3-Chloro-4-((2-(2-(2-chlorobenzylidene)hydrazine-1-carbonyl)-4-(2-(2-chlorobenzylidene)hydrazineyl)-4-oxobutyl)amino)benzenesulfonamide] returned a melting point of 203 to 204 °C. Besides, the Kd in data set [1] stood at 0.13 µM. Besides, the Kd in data set [2] stood at 0.13 µM. Also, the Kd in data set [3] was found to be 50 µM. For the same compound, in data set [4], the Kd amounted to 1.7 µM. In addition, the Kd in data set [5] is 0.33 µM.

For `CC(=NNC(=O)CC(CNc1ccc(S(N)(=O)=O)cc1)C(=O)NN=C(C)c1ccccc1)c1ccccc1` (stereo not drawn) [Compound 5a, 4-((4-Oxo-2-(2-(1-phenylethylidene)hydrazine-1-carbonyl)-4-(2-(1-phenylethylidene)hydrazineyl)butyl)amino)benzenesulfonamide], the melting point lay in the range of 162 to 163 °C. This compound also registered a Kd in data set [1] of 5 µM. The Kd in data set [2] is 0.59 µM. The Kd in data set [3] was 0.5 µM. Further, the Kd in data set [4] stood at 8.3 µM. Besides, the Kd in data set [5] was determined as 1.3 µM.

`CCC(C)=NN1C(=O)CC(CNc2ccc(S(N)(=O)=O)cc2)C1=O` (stereo not drawn) [Compound 4a, 4-(((1-(Butan-2-ylideneamino)-2,5-dioxopyrrolidin-3-yl)methyl)amino)benzenesulfonamide] registered a melting point of 117 to 118 °C. In addition, the Kd in data set [1] stood at 20 µM. Moreover, the Kd in data set [2] turned out to be 2 µM. Moreover, in data set [3], the Kd came out at 18 µM. Besides, the Kd in data set [4] is 18 µM. The Kd in data set [5] is 40 µM.

In the case of `NS(=O)(=O)c1ccc(NCC(Cc2n[nH]c(=S)n2-c2ccccc2)c2n[nH]c(=S)n2-c2ccccc2)cc1` (stereo not drawn) [Compound 25a, 4-((2,3-bis(4-Phenyl-5-thioxo-4,5-dihydro-1H-1,2,4-triazol-3-yl)propyl)amino)benzenesulfonamide], the melting point fell in the range of 258 to 259 °C. The compound also showed a Kd in data set [1] of 25 µM. Also, the Kd in data set [2] came out at 0.1 µM. Further, in data set [3], the Kd amounted to 4 µM. Besides, the Kd in data set [4] amounted to 100 µM. For the same compound, the Kd in data set [5] is 3.3 µM.

Compound `NS(=O)(=O)c1ccc(NCC(CC(=O)NN=Cc2cccc(Cl)c2)C(=O)NN=Cc2cccc(Cl)c2)cc1` (stereo not drawn) [Compound 11a, 4-((2-(2-(3-Chlorobenzylidene)hydrazine-1-carbonyl)-4-(2-(3-chlorobenzylidene)hydrazineyl)-4-oxobutyl)amino)benzenesulfonamide] had a melting point of 190 to 191 °C. Moreover, in data set [1], the Kd turned out to be 5 µM. The Kd in data set [2] is 1 µM. Further, the Kd in data set [3] was found to be 100 µM. For the same compound, the Kd in data set [4] was 20 µM. In data set [5], the Kd came to 3.3 µM.

Compound `NS(=O)(=O)c1ccc(NCC(CC(=O)NN=Cc2ccccc2)C(=O)NN=Cc2ccccc2)cc1` (stereo not drawn) [Compound 6a, 4-((2-(2-(Benzylidene)hydrazine-1-carbonyl)-4-(2-(benzylidene)hydrazineyl)-4-oxobutyl)amino)benzenesulfonamide] had a melting point of 208 to 209 °C. The compound also gave a Kd in data set [1] of 7.7 µM. Moreover, the Kd in data set [2] is 0.56 µM. The Kd in data set [3] is 25 µM. In addition, the Kd in data set [4] was 14 µM. The Kd in data set [5] stood at 1.8 µM.
